Measurements as given in patent publication US9701689B2, “Substituted pyridines and pyridazines as CCR10 receptor inhibitors” (KYOWA HAKKO KIRIN CO., LTD., priority 2012, dated 2017).

target: T1, human CCR10 (Homo sapiens, UniProt P46092); assay: CCR10 antagonistic effect: calcium assay of human CCR10 (CTACK-induced increase of intracellular calcium in hCCR10G16 cells); format: cell-based; details: at a concentration of not more than 1000 nmol/L; human CCR10-expressing hCCR10G16 cells, 300 nmol/L CTACK added; read-out: inhibition of increase in the calcium ion concentration
T1 construct: expressed in transfected cells; host or cells: KJMGER8 cells (Namalwa cell-derived line), beta-estradiol-induced; hCCR10G16 cells
T1 sequence (P46092 1-362): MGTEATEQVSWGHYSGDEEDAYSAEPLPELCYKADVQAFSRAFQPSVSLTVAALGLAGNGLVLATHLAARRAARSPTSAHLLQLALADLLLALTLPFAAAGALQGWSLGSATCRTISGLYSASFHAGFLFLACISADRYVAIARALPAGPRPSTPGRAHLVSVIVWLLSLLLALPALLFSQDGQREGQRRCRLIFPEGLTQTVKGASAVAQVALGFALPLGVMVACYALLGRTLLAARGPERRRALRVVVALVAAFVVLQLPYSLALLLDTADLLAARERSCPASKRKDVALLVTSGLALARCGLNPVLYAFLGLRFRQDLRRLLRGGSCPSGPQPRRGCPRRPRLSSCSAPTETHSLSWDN
How it was run: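 Inhibition of CTACK-evoked calcium flux (max minus min Fluo-3 fluorescence over ~5 min, FDSS) was calculated against control in β-estradiol-induced human CCR10/Gα16 KJMGER8 cells, after 30 min compound preincubation at 37 °C; CTACK added from a 300 nmol/L solution.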

Row | Structure (SMILES) | inhibition at up to 1 µM
1 | NS(=O)(=O)c1ncc(C(=O)N2CCC3(CC2)COc2ccccc23)c(Nc2cccc(Cl)c2)c1Cl [Compound 307, 3-chloro-4-(3-chlorophenylamino)-5-(2H-spiro[benzofuran-3,4′-piperidine]-1′-ylcarbonyl)pyridine-2-sulfonamide] | ≥ 50%
2 | Cc1cc(F)ccc1Nc1cc(S(=O)(=O)Nc2ccccn2)ncc1C(=O)N1CCC(c2ccc(F)cc2)CC1 [Compound 146, 4-(4-fluoro-2-methylphenylamino)-5-[4-(4-fluorophenyl)piperidine-1-carbonyl]-N-(pyridin-2-yl)pyridine-2-sulfonamide] | ≥ 50%
3 | CONS(=O)(=O)c1ncc(C(=O)N2CCC(c3ccc(F)cc3)CC2)c(Nc2ccc(F)cc2C)c1Cl [Compound 193, 3-chloro-4-(4-fluoro-2-methylphenylamino)-5-[4-(4-fluorophenyl)piperidine-1-carbonyl]-N-methoxypyridine-2-sulfonamide] | ≥ 50%
4 | Cc1ccc(Nc2c(C(=O)N3CCC(c4ccc(F)cc4)CC3)cnc(S(=O)(=O)Nc3ccon3)c2C)c(F)c1 [Compound 235, 4-(2-fluoro-4-methylphenylamino)-5-[4-(4-fluorophenyl)piperidine-1-carbonyl]-N-(isoxazol-3-yl)-3-methylpyridine-2-sulfonamide] | ≥ 50%
5 | NS(=O)(=O)c1cc(Nc2cccc(F)c2Cl)c(C(=O)N2CCC(c3ccc(F)cc3)CC2)cn1 [Compound 74, 4-(2-chloro-3-fluorophenylamino)-5-[4-(4-fluorophenyl)piperidine-1-carbonyl]pyridine-2-sulfonamide] | ≥ 50%
6 | Cc1c(S(=O)(=O)Nc2ccon2)ncc(C(=O)N2CCC(c3ccc(F)cc3)CC2)c1Nc1ccc(Cl)cc1Cl [Compound 280, 4-(2,4-dichlorophenylamino)-5-[4-(4-fluorophenyl)piperidine-1-carbonyl]-N-(isoxazol-3-yl)-3-methylpyridine-2-sulfonamide] | ≥ 50%
7 | Cc1cc(NS(=O)(=O)c2ncc(C(=O)N3CCC(c4ccc(F)cc4)CC3)c(Nc3cc(F)ccc3F)c2C)sn1 [Compound 315, 4-(2,5-difluorophenylamino)-5-[4-(4-fluorophenyl)piperidine-1-carbonyl]-3-methyl-N-(3-methylisothiazol-5-yl)pyridine-2-sulfonamide] | ≥ 50%
8 | CC(=O)NC1CCN(S(=O)(=O)c2cc(Nc3ccc(F)cc3C)c(C(=O)N3CCC(c4ccc(F)cc4)CC3)cn2)C1 (centres unmarked) [Compound 7, N-{1-{4-(4-fluoro-2-methylphenylamino)-5-[4-(4-fluorophenyl)piperidine-1-carbonyl]pyridin-2-ylsulfonyl}pyrrolidin-3-yl}acetamide] | ≥ 50%
9 | CC(=O)CNS(=O)(=O)c1cc(Nc2ccc(F)cc2C)c(C(=O)N2CCC(c3ccc(F)cc3)CC2)cn1 [Compound 131, 4-(4-fluoro-2-methylphenylamino)-5-[4-(4-fluorophenyl)piperidine-1-carbonyl]-N-(2-oxopropyl)pyridine-2-sulfonamide] | ≥ 50%
10 | CC(=O)NS(=O)(=O)c1cc(Nc2ccc(F)cc2C)c(C(=O)N2CCC(c3ccc(F)cc3)CC2)cn1 [Compound 13, N-{4-(4-fluoro-2-methylphenylamino)-5-[4-(4-fluorophenyl)piperidine-1-carbonyl]pyridine-2-sulfonyl}acetamide] | ≥ 50%
11 | Cc1cc(NS(=O)(=O)c2ncc(C(=O)N3CCC(c4ccc(F)cc4)CC3)c(Nc3ccc(F)cc3)c2C)sn1 [Compound 299, 5-[4-(4-fluorophenyl)piperidine-1-carbonyl]-4-(4-fluorophenylamino)-3-methyl-N-(3-methylisothiazol-5-yl)pyridine-2-sulfonamide] | ≥ 50%
12 | COC1(c2ccc(F)cc2)CCN(C(=O)c2cnc(S(N)(=O)=O)c(Cl)c2NC2(c3ccccc3)CC2)CC1 [Compound 295, 3-chloro-5-[4-(4-fluorophenyl)-4-methoxypiperidine-1-carbonyl]-4-(1-phenylcyclopropylamino)pyridine-2-sulfonamide] | ≥ 50%
13 | CCCNC(=O)NS(=O)(=O)c1cc(Nc2ccc(Cl)cc2C)c(C(=O)N2CCC(c3ccc(F)cc3)CC2)cn1 [Compound 170, 4-(4-chloro-2-methylphenylamino)-5-[4-(4-fluorophenyl)piperidine-1-carbonyl]-N-(propylcarbamoyl)pyridine-2-sulfonamide] | ≥ 50%

The next lines start with the values.

Row | inhibition at up to 1 µM | Structure (SMILES)
14 | ≥ 50% | COc1ccc(Nc2cc(S(N)(=O)=O)ncc2C(=O)N2CCC(c3ccc(F)cc3)CC2)cc1 [Compound 84, 5-[4-(4-fluorophenyl)piperidine-1-carbonyl]-4-(4-methoxyphenylamino)pyridine-2-sulfonamide]
15 | ≥ 50% | Cc1cc(F)ccc1Nc1cc(S(N)(=O)=O)ncc1C(=O)N1CCC(c2ccc(F)cc2)CC1 [Compound 2, 4-(4-fluoro-2-methylphenylamino)-5-[4-(4-fluorophenyl)piperidine-1-carbonyl]pyridine-2-sulfonamide]
16 | ≥ 50% | Cc1cc(Cl)ccc1Nc1c(C(=O)N2CCC(c3ccc(F)cc3)CC2)cnc(S(N)(=O)=O)c1Cl [Compound 177, 3-chloro-4-(4-chloro-2-methylphenylamino)-5-[4-(4-fluorophenyl)piperidine-1-carbonyl]pyridine-2-sulfonamide]
17 | ≥ 50% | NS(=O)(=O)c1ncc(C(=O)N2CCC(c3ccc(F)cc3)CC2)c(Nc2cc(F)c(F)cc2F)c1Cl [Compound 34, 3-chloro-5-[4-(4-fluorophenyl)piperidine-1-carbonyl]-4-(2,4,5-trifluorophenylamino)pyridine-2-sulfonamide]
18 | ≥ 50% | Cc1c(S(N)(=O)=O)ncc(C(=O)N2CCC(c3ccc(F)cc3)CC2)c1NC1CCCCC1 [Compound 207, 4-(cyclohexylamino)-5-[4-(4-fluorophenyl)piperidine-1-carbonyl]-3-methylpyridine-2-sulfonamide]
19 | ≥ 50% | NS(=O)(=O)c1ncc(C(=O)N2CCC(c3ccc(F)cc3)CC2)c(NCc2cccs2)c1Cl [Compound 231, 3-chloro-5-[4-(4-fluorophenyl)piperidine-1-carbonyl]-4-(thiophen-2-ylmethylamino)pyridine-2-sulfonamide]
20 | ≥ 50% | Cc1cccc(Sc2c(C(=O)N3CCC(c4ccc(F)cc4)CC3)cnc(S(N)(=O)=O)c2Cl)c1 [Compound 210, 3-chloro-5-[4-(4-fluorophenyl)piperidine-1-carbonyl]-4-(m-tolylthio)pyridine-2-sulfonamide]
21 | ≥ 50% | Cc1ccc(Nc2cc(S(N)(=O)=O)ncc2C(=O)N2CCC(c3ccc(F)cc3)CC2)c(Cl)c1 [Compound 58, 4-(2-chloro-4-methylphenylamino)-5-[4-(4-fluorophenyl)piperidine-1-carbonyl]pyridine-2-sulfonamide]
22 | ≥ 50% | Cc1cc(S(C)(=O)=O)ccc1Nc1c(C(=O)N2CCC(c3ccc(F)cc3)CC2)cnc(S(N)(=O)=O)c1Cl [Compound 329, 3-chloro-5-[4-(4-fluorophenyl)piperidine-1-carbonyl]-4-[2-methyl-4-(methylsulfonyl)phenylamino]pyridine-2-sulfonamide]
23 | ≥ 50% | Cc1ccc(Nc2c(C(=O)N3CCC(c4ccc(F)cc4)CC3)cnc(S(N)(=O)=O)c2Cl)c(F)c1 [Compound 328, 3-chloro-4-(2-fluoro-4-methylphenylamino)-5-[4-(4-fluorophenyl)piperidine-1-carbonyl]pyridine-2-sulfonamide]
24 | ≥ 50% | Cc1ccc(Nc2cc(S(N)(=O)=O)ncc2C(=O)N2CCC(c3ccc(F)cc3)CC2)cc1C [Compound 107, 4-(3,4-dimethylphenylamino)-5-[4-(4-fluorophenyl)piperidine-1-carbonyl]pyridine-2-sulfonamide]
25 | ≥ 50% | Cc1cc(Nc2cc(S(N)(=O)=O)ncc2C(=O)N2CCC(c3ccc(F)cc3)CC2)c(Cl)cc1Cl [Compound 51, 4-(2,4-dichloro-5-methylphenylamino)-5-[4-(4-fluorophenyl)piperidine-1-carbonyl]pyridine-2-sulfonamide]
26 | ≥ 50% | COc1ccc(Nc2c(C(=O)N3CCC(c4ccc(F)cc4)CC3)cnc(S(N)(=O)=O)c2Cl)cc1 [Compound 29, 3-chloro-5-[4-(4-fluorophenyl)piperidine-1-carbonyl]-4-(4-methoxyphenylamino)pyridine-2-sulfonamide]
27 | ≥ 50% | Cc1c(S(N)(=O)=O)ncc(C(=O)N2CCC(c3ccc(F)cc3)CC2)c1NC(C)c1ccccc1 (centres unmarked) [Compound 220, 5-[4-(4-fluorophenyl)piperidine-1-carbonyl]-3-methyl-4-(1-phenylethylamino)pyridine-2-sulfonamide]
28 | ≥ 50% | CN(Nc1c(C(=O)N2CCC(c3ccc(F)cc3)CC2)cnc(S(N)(=O)=O)c1Cl)c1ccccc1 [Compound 282, 3-chloro-5-[4-(4-fluorophenyl)piperidine-1-carbonyl]-4-(2-methyl-2-phenylhydrazinyl)pyridine-2-sulfonamide]
29 | ≥ 50% | CCS(=O)(=O)c1ncc(C(=O)N2CCC(c3ccc(F)cc3)CC2)c(Nc2ccccc2C)c1Cl [Compound 204, [5-chloro-6-(ethylsulfonyl)-4-(o-tolylamino)pyridin-3-yl][4-(4-fluorophenyl)piperidin-1-yl]methanone]
